For data set [1], the system named is histamine-induced skin vascular permeability. Put plainly: Inhibitory effect on histamine-induced vascular permeability in mice. Conditions: Mus musculus, po; 5 mg/kg intragastric 1 hour before modeling; histamine phosphate 1 ug/0.1 mL; Evans Blue absorbance at 610 nm; read-out: Inhibition rate (%). The data set is classed as in vivo, ICR mice. The procedure: Intragastric administration was performed 1 hour before modeling. The model group was given the corresponding solvent. […] 10% sodium sulfide was used to depilate the back of mice (3 cm×3 cm). The mice were injected 1 ug/0.1 mL of histamine phosphate physiological saline solution into the depilation site one hour after the administration, and injected 0.25% Evans Blue solution 4 ml/kg from the tail vein immediately after the injection. After 30 minutes, the mice were dislocated and sacrificed. The blue-stained part of the skin was removed and perforated (diameter 15 mm), cut into pieces and soaked in 1 ml of acetone-saline (7:3) solution. After 24 h, it was centrifuged (3000 r/min, 10 min) to take the supernatant. The absorbance of the sample was measured with an ultraviolet spectrophotometer at a wavelength of 610 nm and a blank zero calibration with acetone-physiological saline solution.

Data set [2] relates to pilocarpine-induced saliva secretion. Put plainly: Pilocarpine-induced salivation in rats. Conditions: 10 mg/kg intragastric; pilocarpine 1 mg/kg i.p. 15 minutes later; saliva collected 10 minutes.
Procedure: Rats in each group were given corresponding drugs by intragastric administration. 15 minutes later, pilocarpine (1 mg/kg, dissolved in physiological saline) was injected intraperitoneally to induce saliva secretion. The rat was immediately anesthetized by intraperitoneal injection of 10% chloral hydrate. After the rat was anesthetized, the residual saliva in the oral cavity was taken out with a cotton ball in that the weighed cotton ball (M1) was placed in the oral cavity (two under the tongue and one for each on both sides). The cotton ball was taken out 10 minutes later and the weight of the cotton ball (M2) was immediately measured.
Inhibition rate=Saliva secretion in drug administration group/Saliva secretion in model group×100%

Each structure is given as a SMILES string.

As for `CC(C)(C(=O)O)c1ccc(CCN2CCC(=C3c4ccc(Cl)cc4CCc4cccnc43)CC2)cc1` [Example 2, 2-(4-(2-(4-(4-(8-chloro-5,6-dihydro-11H-benzo[5,6]]cyclohept[1,2-b]pyridine-11-enyl)piperidin-1-yl)ethyl)phenyl)-2-methylpropionic acid], in data set [1], the inhibition in vivo at 5 mg/kg was 54%. In addition, in data set [2], the “Inhibition rate (%)” value came to 7.64%.

`COc1cc(C(C)(C)C(=O)O)ccc1CCCN1CCC(=C2c3ccc(Cl)cc3CCc3cccnc32)CC1` [Example 5, 2-(4-(3-(4-(8-chloro-5,6-dihydro-11H-benzo[5,6]cyclohepta[1,2-b]pyridine-11-enyl)piperidine-1-yl)propyl)-3-methoxyphenyl)-2-methylpropionic acid]: the inhibition in vivo at 5 mg/kg in data set [1] was 47.9%. Besides, in data set [2], the “Inhibition rate (%)” value was 11.60%.

Consider `CC(C)(C(=O)O)c1ccc(CCCN2CCC(=C3c4ccc(Cl)cc4CCc4cccnc43)CC2)c(N)c1` [Example 6, 2-(3-Amino-4-(3-(4-(8-chloro-5,6-dihydro-11H-benzo[5,6]cyclohept[1,2-b]pyridine-11-enyl)piperidin-1-yl)propyl)phenyl)-2-methylpropionic acid], for which, in data set [1], the inhibition in vivo at 5 mg/kg came out at 53.2%. Besides, the “Inhibition rate (%)” value in data set [2] came out at 6.34%.

`CC(C)(C(=O)O)c1ccc(CCCN2CCC(=C3c4ccc(Cl)cc4CCc4cccnc43)CC2)cc1F` [Example 9, 2-(4-(3-(4-(8-chloro-5,6-dihydro-11H-benzo[5,6]cyclohepta[1,2-b]pyridine-11-enyl)piperidine-1-yl)propyl)-2-fluorophenyl)-2-methylpropionic acid]: the inhibition in vivo at 5 mg/kg in data set [1] was 50.6%. Moreover, in data set [2], the “Inhibition rate (%)” value amounted to 12.01%.

For the molecule `Cc1cc(C(C)(C)C(=O)O)ccc1CCCN1CCC(=C2c3ccc(Cl)cc3CCc3cccnc32)CC1` [Example 10, 2-(4-(3-(4-(8-chloro-5,6-dihydro-11H-benzo[5,6]cyclohepta[1,2-b]pyridine-11-enyl)piperidine-1-yl)propyl)-3-methylphenyl)-2-methylpropionic acid], in data set [1], the inhibition in vivo at 5 mg/kg was 41.2%. The “Inhibition rate (%)” value in data set [2] was determined as 5.13%.

Consider `CC(C)(C(=O)O)c1ccc(CCCN2CCC(=C3c4ccc(Cl)cc4CCc4cccnc43)CC2)c(C(F)(F)F)c1` [Example 12], for which the inhibition in vivo at 5 mg/kg in data set [1] came out at 44.6%. Besides, in data set [2], the “Inhibition rate (%)” value was 7.48%.

As to `CC(C)(C(=O)O)c1ccc(CCCN2CCC(=C3c4ccc(Cl)cc4CCc4cccnc43)CC2)cc1C(F)(F)F` [Example 13], the inhibition in vivo at 5 mg/kg in data set [1] was 51%. Moreover, the “Inhibition rate (%)” value in data set [2] worked out at 5.77%.

Regarding `CC(C)(C(=O)O)c1ccc(CCCN2CCC(=C3c4ccc(Cl)cc4CCc4cccnc43)CC2)c(Br)c1` [Example 14, 2-(3-Bromo-4-(3-(4-(8-chloro-5,6-dihydro-11H-benzo[5,6]cyclohept[1,2-b]pyridine-11-enyl)piperidin-1-yl)propyl)phenyl)-2-methylpropionic acid], the inhibition in vivo at 5 mg/kg in data set [1] came out at 42.8%. Further, the “Inhibition rate (%)” value in data set [2] turned out to be 3.78%.

As to `CC(C)(C(=O)O)c1ccc(CCCN2CCC(=C3c4ccc(Cl)cc4CCc4cccnc43)CC2)c(Cl)c1` [Example 15, 2-(3-chloro-4-(3-(4-(8-chloro-5,6-dihydro-11H-benzo[5,6]cyclohept[1,2-b]pyridine-11-enyl)piperidin-1-yl)propyl)phenyl)-2-methylpropionic acid], the inhibition in vivo at 5 mg/kg in data set [1] came to 52.8%. For the same molecule, the “Inhibition rate (%)” value in data set [2] worked out at 8.42%.

On to `CC(C)(C(=O)O)c1ccc(CCCN2CCC(=C3c4ccc(Cl)cc4CCc4cccnc43)CC2)c([N+](=O)[O-])c1` [Example 16, 2-(4-(3-(4-(8-chloro-5,6-dihydro-11H-benzo[5,6]cyclohepta[1,2-b]pyridine-11-enyl)piperidine-1-yl)propyl)-2-nitrophenyl)-2-methylpropionic acid], for which, in data set [1], the inhibition in vivo at 5 mg/kg turned out to be 50.8%. For the same molecule, the “Inhibition rate (%)” value in data set [2] is reported as 10.76%.
